Source: patent US20060217418A1, “Substituted alkyl amido piperidines” (priority 2001, published 2006)

Biological target: T1, rat MCH1 receptor (Rattus norvegicus, UniProt P97639)
T1 construct: operatively linked to DNA encoding the rat MCH1 receptor so as to permit expression thereof; expressed in transfected cells; host or cells: Human embryonic kidney Peak rapid 293 (Peakr293) cells, transient calcium phosphate transfection, membranes
Assay: Radioligand binding assay at cloned rat MCH1 receptor ([3H]Compound A)
Conditions: cloned rat MCH1, Peakr293 cell membranes, 0.08 nM [3H]Compound A, 25° C., 90 minutes; read-out: Ki(MCH-1)

T1 sequence (P97639 whole entry): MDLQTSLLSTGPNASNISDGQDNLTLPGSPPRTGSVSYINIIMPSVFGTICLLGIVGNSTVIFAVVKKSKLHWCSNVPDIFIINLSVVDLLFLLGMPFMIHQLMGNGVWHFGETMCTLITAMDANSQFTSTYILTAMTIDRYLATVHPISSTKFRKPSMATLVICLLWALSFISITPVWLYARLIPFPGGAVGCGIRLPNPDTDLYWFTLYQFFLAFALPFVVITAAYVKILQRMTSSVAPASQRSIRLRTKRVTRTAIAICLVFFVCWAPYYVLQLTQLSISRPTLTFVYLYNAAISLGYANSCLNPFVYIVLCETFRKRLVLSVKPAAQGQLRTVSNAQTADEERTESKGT

Structure (SMILES)	Ki
COC(C(=O)NCCCN1CCC(c2cccc(NC(=O)C(C)C)c2)CC1)c1ccc(Cl)c(Cl)c1 (stereo not drawn) [Example 39]	32.2 nM
CC(C)C(=O)Nc1c(F)cc(F)c(C2CCN(CCCNC(=O)C(c3ccc(F)cc3)c3ccc(F)cc3)CC2)c1F [Example 173, N-{3-[1-(3-{[bis(4-fluorophenyl)acetyl]amino}propyl)-4-piperidinyl]-2,4,6-trifluorophenyl}-2-methylpropanamide]	2.5 nM
Cc1ccc(NC(=O)C(C)C)cc1C1CCN(CCCNC(=O)[C@H](C)c2ccc(F)cc2)CC1 [Example 169, (2R)-2-(4-fluorophenyl)-N-(3-{4-[5-(isobutyrylamino)-2-methylphenyl]-1-piperidinyl}propyl) propanamide]	35.9 nM
CC(C)C(=O)Nc1ccc(F)c(C2CCN(CCCNC(=O)C3(c4ccc(Cl)cc4)CCCCC3)CC2)c1 [Example 130]	2.6 nM
CC(C)C(=O)Nc1cccc(C2CCN(CCCNC(=O)C(C)(C)c3ccc(Cl)cc3)CC2)n1 [Example 88]	23 nM
CC(C)C(=O)Nc1cccc(C2CCN(CCCNC(=O)C3(c4ccc(F)cc4)CCCCC3)CC2)n1 [Example 68, 1-(4-FLUOROPHENYL)-N-(3-{4-[6-(ISOBUTYRYLAMINO)-2-PYRIDINYL]-1-PIPERIDINYL} PROPYL)CYCLOHEXANECARBOXAMIDE]	16.9 nM
O=C(Nc1cccc(C2CCN(CCCNC(=O)C3(c4ccc(Cl)cc4)CCCC3)CC2)c1)C1CC1 [Example 112]	3.2 nM
Cc1ccc(NC(=O)C(C)C)cc1C1CCN(CCCNC(=O)C2(c3ccc(Cl)cc3)CCCCC2)CC1 [Example 85]	4.6 nM
CC(C)C(=O)Nc1cccc(C2CCN(CCCNC(=O)C3(c4ccc(Cl)cc4)CCCC3)CC2)n1 [Example 84]	12.6 nM
CCCC(=O)Nc1cc(C2CCN(CCCNC(=O)C(c3ccc(Cl)cc3)c3ccc(Cl)cc3)CC2)ccc1F [Example 108]	1.9 nM
CC(C)OC(=O)Nc1cccc(C2CCN(CCCNC(=O)C(c3ccc(F)cc3)c3ccc(F)cc3)CC2)c1 [Example 146, ISOPROPYL 3-[1-(3-{[BIS(4-FLUOROPHENYL)ACETYL]AMINO}PROPYL)-4-PIPERIDINYL]PHENYLCARBAMATE]	6.2 nM
Cc1ccc(NC(=O)C(C)C)cc1C1CCN(CCCNC(=O)C2(c3ccc(F)cc3)CCCC2)CC1 [Example 93]	4.9 nM
CN(C)C(=O)Nc1cccc(C2CCN(CCCNC(=O)C(c3ccc(F)cc3)c3ccc(F)cc3)CC2)c1 [Example 139]	33.4 nM
CC(C)C(=O)Nc1ccc(F)c(C2CCN(CCCNC(=O)C(c3ccc(Cl)cc3)c3ccc(Cl)cc3)CC2)c1 [Example 54]	2.2 nM
CC(C)C(=O)Nc1ccc(F)c(C2CCN(CCCNC(=O)C(C)(C)c3ccc(Cl)cc3)CC2)c1 [Example 127]	175 nM
CC(C)C(=O)Nc1cccc(C2CCN(CCCNC(=O)C(c3ccc(Cl)cc3)c3ccc(Cl)cc3)CC2)n1 [Example 50]	1.9 nM
Cc1ccc(NC(=O)C(C)C)cc1C1CCN(CCCNC(=O)C2(c3ccc(Cl)cc3)CCC2)CC1 [Example 86]	3.2 nM
O=C(Nc1cccc(C2CCN(CCCNC(=O)C3(c4ccc(F)cc4Cl)CCCC3)CC2)c1)C1CC1 [Example 119, 1-(2-CHLORO-4-FLUOROPHENYL)-N-[3-(4-{3-[(CYCLOPROPYLCARBONYL)AMINO] PHENYL}-1-PIPERIDINYL)PROPYL]CYCLOPENTANECARBOXAMIDE]	18.6 nM
CC(C)C(=O)Nc1ccc(F)c(C2CCN(CCCNC(=O)C3(c4ccc(F)cc4Cl)CCCCC3)CC2)c1 [Example 133, 1-(2-CHLORO-4-FLUOROPHENYL)-N-(3-{4-[2-FLUORO-5-(ISOBUTYRYLAMINO) PHENYL]-1-PIPERIDINYL}PROPYL)CYCLO HEXANECARBOXAMIDE]	5.9 nM
Cc1ccc(NC(=O)C(C)C)cc1C1CCN(CCCNC(=O)C2(c3ccc(F)cc3)CCCCC2)CC1 [Example 92]	2.6 nM
CC(C)C(=O)Nc1cc(C2CCN(CCCNC(=O)C(c3ccc(F)cc3)c3ccc(F)cc3)CC2)c(F)cc1F [Example 165, N-{5-[1-(3-{[bis(4-fluorophenyl)acetyl]amino}propyl)-4-piperidinyl]-2,4-difluorophenyl}-2-methylpropanamide]	1.1 nM
CC(C)C(=O)Nc1ccc(F)c(C2CCN(CCCNC(=O)C3(c4ccc(F)cc4)CCCCC3)CC2)c1 [Example 131]	4 nM

More lines, now with the values ahead:

Ki	Structure (SMILES)
2.8 nM	CC(C(=O)NCCCN1CCC(c2cccc(NC(=O)C3CC3)c2)CC1)(c1ccccc1)c1ccccc1 [Example 123, N-[3-(1-{3-[(2,2-DIPHENYLPROPANOYL)AMINO]PROPYL}-4-PIPERIDINYL)PHENYL] CYCLOPROPANECARBOXAMIDE]
19.1 nM	CC(C)C(=O)Nc1cncc(C2CCN(CCCNC(=O)C(c3ccccc3)c3ccccc3)CC2)c1 [Example 170, N-[5-(1-{3-[(diphenylacetyl)amino]propyl}-4-piperidinyl)-3-pyridinyl]-2-methyl propanamide]
48.7 nM	CC(C)C(=O)Nc1ccc(F)c(C2CCN(CCCNC(=O)C(F)(F)c3ccccc3)CC2)c1 [Example 136]
13.9 nM	CCC(C(=O)NCCCN1CCC(c2cccc(NC(=O)C(C)C)c2)CC1)(c1ccccc1)c1ccccc1 [Example 12]
31.7 nM	CCC(=O)Nc1cccc(C2CCN(CCCNC(=O)C3(c4ccc(Cl)cc4)CCCC3)CC2)c1 [Example 62, 1-(4-CHLOROPHENYL)-N-(3-{4-[3-PROPIONYLAMINO)PHENYL]-1-PIPERIDINYL} PROPYL)CYCLOPENTANECARBOXAMIDE]
4.8 nM	CCC(C(=O)NCCCN1CCC(c2cccc(NC(=O)C3CC3)c2)CC1)(c1ccccc1)c1ccccc1 [Example 122, N-[3-(1-{3-[(2,2-DIPHENYLBUTANOYL)AMINO]PROPYL}-4-PIPERIDINYL)PHENYL] CYCLOPROPANECARBOXAMIDE]
5.3 nM	CC(C)C(=O)Nc1cccc(C2CCN(CCCNC(=O)C(C)(c3ccccc3)c3ccccc3)CC2)c1 [Example 30]
34.3 nM	CC(=O)Nc1cccc(C2CCN(CCCNC(=O)C3(c4ccc(Cl)cc4)CCC3)CC2)c1 [Example 74, N-(3-{4-[3-(ACETYLAMINO)PHENYL]-1-PIPERIDINYL}PROPYL)-1-(4-CHLOROPHENYL) CYCLOBUTANECARBOXAMIDE]
77.4 nM	CC(C)OC(=O)Nc1cccc(C2CCN(CCCNC(=O)C(C)(C)c3ccc(Cl)cc3)CC2)c1 [Example 142, Isopropyl 3-[1-(3-{[2-(4-Chlorophenyl)-2-Methylpropanoyl]Amino}Propyl)-4-Piperidinyl]Phenyl carbamate]
1.1 nM	CCCC(=O)Nc1cccc(C2CCN(CCCNC(=O)C(c3ccc(Cl)cc3)c3ccc(Cl)cc3)CC2)c1 [Example 53, N-{3-[1-(3-{[2,2-BIS(4-CHLOROPHENYL)ACETYL]AMINO}PROPYL)-4-PIPERIDINYL] PHENYL}BUTANAMIDE]
62 nM	O=C(CC(c1ccccc1)c1ccccc1)NCCCN1CCC(c2cccc(NC(=O)C3CC3)c2)CC1 [Example 151, N-[3-(1-{3-[(3,3-DIPHENYLPROPANOYL)AMINO]PROPYL}-4-PIPERIDINYL)PHENYL] CYCLOPROPANECARBOXAMIDE]
3.1 nM	CCCC(=O)Nc1cccc(C2CCN(CCCNC(=O)C(c3ccccc3)c3ccccc3)CC2)c1 [Example 5]
4.3 nM	CCCC(=O)Nc1cccc(C2CCN(CCCNC(=O)C(C)(c3ccccc3)c3ccccc3)CC2)c1 [Example 98, N-[3-(1-{3-[(2,2-DIPHENYLPROPANOYL)AMINO]PROPYL}-4-PIPERIDINYL)PHENYL] BUTANAMIDE]
45.9 nM	CCC(=O)Nc1cccc(C2CCN(CCCNC(=O)C3(c4ccc(Cl)cc4)CCC3)CC2)c1 [Example 58, 1-(4-CHLOROPHENYL)-N-(3-{4-[3-PROPIONYLAMINO)PHENYL]-1-PIPERIDINYL} PROPYL)CYCLOBUTANECARBOXAMIDE]
1.8 nM	O=C(Nc1cccc(C2CCN(CCCNC(=O)C(c3ccccc3)c3ccccc3)CC2)c1)C1CC1 [Example 17]
39.9 nM	CCCC(=O)Nc1cccc(C2CCN(CCCNC(=O)C3(c4ccc(Cl)cc4)CC3)CC2)c1 [Example 69, N-(3-{4-[3-(butyrylamino)phenyl]-1-piperidinyl}propyl)-1-(4-chlorophenyl)cyclopropane carboxamide]
31.5 nM	CC(C)(C)C(=O)Nc1cccc(C2CCN(CCCNC(=O)C(c3ccccc3)c3ccccc3)CC2)c1 [Example 18]
2.8 nM	CC(=O)Nc1cccc(C2CCN(CCCNC(=O)C(c3ccccc3)(c3ccccc3)c3ccccc3)CC2)c1 [Example 105, N-(3-{4-[3-(ACETYLAMINO)PHENYL]-1-PIPERIDINYL}PROPYL)-2,2,2-TRIPHENYL ACETAMIDE]
0.4 nM	CC(=O)Nc1cccc(C2CCN(CCCNC(=O)C(c3ccc(F)cc3)c3ccc(F)cc3)CC2)c1 [Example 28, N-(3-{4-[3-(acetylamino)phenyl]-1-piperidinyl}propyl)-2,2-bis(4-fluorophenyl)acetamide]
115 nM	Nc1cccc(C2CCN(CCCNC(=O)C(c3ccccc3)c3ccccc3)CC2)c1 [Example 152]
496 nM	Cc1c(NC(=O)C(C)C)cccc1C1CCN(CCCNC(=O)C(c2ccccc2)c2ccccc2)CC1 [Example 33]
23.4 nM	CC(C)(C)CC(=O)Nc1cccc(C2CCN(CCCNC(=O)C(c3ccccc3)c3ccccc3)CC2)c1 [Example 19]
150 nM	CCC(=O)Nc1cccc(C2CCN(CCCNC(=O)C3(c4ccc(Cl)cc4)CC3)CC2)c1 [Example 63, 1-(4-CHLOROPHENYL-N-(3-{4-[3-(PROPIONYLAMINO)PHENYL]-1-PIPERIDINYL} PROPYL)CYCLOPROPANECARBOXAMIDE]
7.9 nM	CCC(=O)Nc1cccc(C2CCN(CCCNC(=O)C(C)(C)c3ccc(Cl)cc3)CC2)c1 [Example 7]
19.7 nM	CC(C)C(=O)Nc1cccc(C2CCN(CCCNC(=O)C3(c4ccc(Cl)cc4)CC3)CC2)c1 [Example 44, 1-(4-CHLOROPHENYL)-N-(3-{4-[3-(ISOBUTYRYLAMINO)PHENYL]-1-PIPERIDINYL} PROPYL)CYCLOPROPANECARBOXAMIDE]
0.5 nM	CCC(=O)Nc1cccc(C2CCN(CCCNC(=O)C(c3ccc(Cl)cc3)c3ccc(Cl)cc3)CC2)c1 [Example 57, N-{3-[1-(3-{[2,2-BIS(4-CHLOROPHENYL)ACETYL]AMINO}PROPYL)-4-PIPERIDINYL] PHENYL}PROPANAMIDE]
